Reference: patent publication US20260356856A1, “KRAS G12S AND G12C INHIBITORS” (MIRATI THERAPEUTICS, INC., priority 2023, published 2026)

Assays:
KRas G12C = molecular target: T1, KRas G12C (Homo sapiens, UniProt P01116, G12C); assay: KRas binding assay, TR-FRET displacement of Cy5 labelled tracer; settings: 60-minute incubation at room temperature, 1% DMSO, pH 7.5
T1 construct: Biotinylated KRas (corresponding to amino acids 1-169, produced at Accelegan Inc.); biotin (biotinylated); purchased Accelegan Inc
Method in brief: (§1)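 Final conditions: 1% DMSO, pH 7.5 HEPES buffer, 60 min, room temperature. Protein: biotin-KRas 1-169 with terbium streptavidin. Output: IC50, four-parameter fit of POC.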

KRas G12S = molecular target: T2, KRas G12S (Homo sapiens, UniProt P01116, G12S); assay: as above; settings: 60-minute incubation at room temperature, 1% DMSO, pH 7.5
T2 construct: Biotinylated KRas (corresponding to amino acids 1-169, produced at Accelegan Inc.); biotin (biotinylated); purchased Accelegan Inc
Method in brief: as §1

KRas WT = molecular target: T3, KRas WT (Homo sapiens, UniProt P01116); assay: as above; settings: 60-minute incubation at room temperature, 1% DMSO, pH 7.5
T3 construct: Biotinylated KRas (corresponding to amino acids 1-169, produced at Accelegan Inc.); biotin (biotinylated); purchased Accelegan Inc
Method in brief: as §1

[1] = molecular target: T4, KRas-mediated phosphorylation of ERK in MKN1 cells (Homo sapiens, UniProt P01116); assay: Inhibition of KRas-mediated phosphorylation of ERK (HTRF), MKN1 cells; type: cell-based; settings: MKN1 cells (KRas WT); HTRF pERK; 3 h incubation
T4 construct: pERK HTRF read-out
Method: Inhibition of KRas Phosphorylation of ERK (HTRF) by Exemplary Compounds of Formula (Ia) or (Ib)
Cisbio HTRF Advanced pERK Assay Catalog #64AERPEH • Cells: MKN1, PSN1 • Procedure: • 1. Day 1: Seed 6,000 cells/well −25 μl/well in 384-well white solid bottom plate; RPM1_10% FBS. Incubate overnight at 37 °C/5% CO2. • 2.

[2] = molecular target: T5, KRas-mediated phosphorylation of ERK in A549 cells (Homo sapiens, UniProt P01116, G12S); assay: Inhibition of KRas-mediated phosphorylation of ERK (HTRF), A549 cells; type: cell-based; settings: HTRF pERK, 3 h incubation
T5 construct: pERK HTRF read-out

[3] = molecular target: T6, KRas-mediated phosphorylation of ERK in H358 cells (Homo sapiens, UniProt P01116, G12C); assay: Inhibition of KRas-mediated phosphorylation of ERK (HTRF), H358 cells; type: cell-based; settings: HTRF pERK, 3 h incubation
T6 construct: pERK HTRF read-out
T6 sequence (P01116 1-188 isoform P01116-2 G12C): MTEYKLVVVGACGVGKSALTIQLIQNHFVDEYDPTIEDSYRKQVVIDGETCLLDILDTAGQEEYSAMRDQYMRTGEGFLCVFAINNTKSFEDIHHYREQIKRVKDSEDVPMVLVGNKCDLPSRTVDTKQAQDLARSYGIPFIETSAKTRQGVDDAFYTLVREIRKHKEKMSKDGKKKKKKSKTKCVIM

T1 sequence (P01116 1-169 isoform P01116-2 G12C): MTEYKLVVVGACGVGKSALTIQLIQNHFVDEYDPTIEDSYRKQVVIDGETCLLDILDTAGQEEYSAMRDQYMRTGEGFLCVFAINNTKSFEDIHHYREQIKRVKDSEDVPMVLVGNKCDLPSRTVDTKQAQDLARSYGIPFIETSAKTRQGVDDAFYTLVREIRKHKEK
T2 sequence (P01116 1-169 isoform P01116-2 G12S): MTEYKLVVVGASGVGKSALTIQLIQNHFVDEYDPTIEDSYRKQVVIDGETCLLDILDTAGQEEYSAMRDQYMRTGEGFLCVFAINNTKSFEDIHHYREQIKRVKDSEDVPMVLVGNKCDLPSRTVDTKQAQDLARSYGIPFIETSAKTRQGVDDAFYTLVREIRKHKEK
T5 sequence (P01116 1-188 isoform P01116-2 G12S): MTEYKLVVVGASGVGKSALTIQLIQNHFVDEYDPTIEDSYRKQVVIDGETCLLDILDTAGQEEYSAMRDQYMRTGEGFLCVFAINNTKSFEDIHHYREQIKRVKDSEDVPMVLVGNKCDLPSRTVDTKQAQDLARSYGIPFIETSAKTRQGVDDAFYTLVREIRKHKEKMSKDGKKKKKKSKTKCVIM
T4 sequence (P01116 1-188 isoform P01116-2): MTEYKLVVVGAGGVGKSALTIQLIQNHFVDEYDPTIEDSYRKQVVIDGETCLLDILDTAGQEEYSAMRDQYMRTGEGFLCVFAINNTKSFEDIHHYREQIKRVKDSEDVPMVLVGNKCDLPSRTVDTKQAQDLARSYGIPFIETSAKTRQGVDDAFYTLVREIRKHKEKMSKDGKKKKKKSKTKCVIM
T3 sequence (P01116 1-169 isoform P01116-2): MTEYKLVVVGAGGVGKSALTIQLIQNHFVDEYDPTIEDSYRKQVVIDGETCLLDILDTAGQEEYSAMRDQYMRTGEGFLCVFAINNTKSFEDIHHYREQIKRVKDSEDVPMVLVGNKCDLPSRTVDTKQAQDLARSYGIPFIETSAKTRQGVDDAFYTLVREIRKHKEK

SMILES: CON(C(C)=O)C(=O)CCCN(C)c1nc(OC[C@@]23CCCN2C[C@H](F)C3)nc2c(F)c(-c3ccc(F)c4sc(N)c(C#N)c34)c(Cl)cc12 [Example 234, N-acetyl-4-((7-(2-amino-3-cyano-7-fluorobenzo[b]thiophen-4-yl)-6-chloro-8-fluoro-2-(((2R,7aS)-2-fluorotetrahydro-1H-pyrrolizin-7a(5H)-yl)methoxy)quinazolin-4-yl)(methyl)amino)-N-methoxybutanamide]
- IC50 (KRas G12C): < 2 nM
- IC50 (KRas G12S): 3 nM
- IC50 (KRas WT): 9 nM
- IC50 [1]: 161 nM
- IC50 [2]: 3 nM
- IC50 [3]: 7 nM

SMILES: CN(C=O)C(=O)CCCN(C)c1nc(OC[C@@]23CCCN2C[C@H](F)C3)nc2c(F)c(-c3ccc(F)c4sc(N)c(C#N)c34)c(Cl)cc12 [Example 235, 4-((7-(2-amino-3-cyano-7-fluorobenzo[b]thiophen-4-yl)-6-chloro-8-fluoro-2-(((2R,7aS)-2-fluorotetrahydro-1H-pyrrolizin-7a(5H)-yl)methoxy)quinazolin-4-yl)(methyl)amino)-N-formyl-N-methylbutanamide]
- IC50 (KRas G12C): 3 nM
- IC50 (KRas G12S): 2 nM
- IC50 (KRas WT): 6 nM
- IC50 [1]: 82 nM
- IC50 [2]: 7 nM
- IC50 [3]: 60 nM

SMILES: CC(=O)N(C)C(=O)[C@@H]1C[C@@H]2CN(c3nc(OC[C@@]45CCCN4C[C@H](F)C5)nc4c(F)c(-c5ccc(F)c6sc(N)c(C#N)c56)c(Cl)cc34)C[C@@H]2C1 [Example 237, (3aR,5R,6aS)-N-acetyl-2-((S)-7-(2-amino-3-cyano-7-fluorobenzo[b]thiophen-4-yl)-6-chloro-8-fluoro-2-(((2R,7aS)-2-fluorotetrahydro-1H-pyrrolizin-7a(5H)-yl)methoxy)quinazolin-4-yl)-N-methyloctahydrocyclopenta[c]pyrrole-5-carboxamide]
- IC50 (KRas G12C): 18 nM
- IC50 (KRas G12S): 6 nM
- IC50 (KRas WT): 15 nM
- IC50 [1]: 70 nM
- IC50 [2]: 17 nM
- IC50 [3]: 69 nM

SMILES: CC(=O)N(C)C(=O)[C@@H]1C[C@H]1CNc1nc(OC[C@@]23CCCN2C[C@H](F)C3)nc2c(F)c(-c3ccc(F)c4sc(N)c(C#N)c34)c(Cl)cc12 [Example 238, trans-N-acetyl-2-(((7-(2-amino-3-cyano-7-fluorobenzo[b]thiophen-4-yl)-6-chloro-8-fluoro-2-(((2R,7aS)-2-fluorotetrahydro-1H-pyrrolizin-7a(5H)-yl)methoxy)quinazolin-4-yl)amino)methyl)-N-methylcyclopropane-1-carboxamide]
- IC50 (KRas G12C): 11 nM
- IC50 (KRas G12S): 14 nM
- IC50 (KRas WT): 10 nM
- IC50 [1]: 40 nM
- IC50 [2]: 145 nM
- IC50 [3]: 84 nM

SMILES: CN(C)C(=O)N(C)C(=O)CCCN(C)c1nc(OC[C@@]23CCCN2C[C@H](F)C3)nc2c(F)c(-c3ccc(F)c4sc(N)c(C#N)c34)c(Cl)cc12 [Example 239, 4-((7-(2-amino-3-cyano-7-fluorobenzo[b]thiophen-4-yl)-6-chloro-8-fluoro-2-(((2R,7aS)-2-fluorotetrahydro-1H-pyrrolizin-7a(5H)-yl)methoxy)quinazolin-4-yl)(methyl)amino)-N-(dimethylcarbamoyl)-N-methylbutanamide]
- IC50 (KRas G12C): 6 nM
- IC50 (KRas G12S): 8 nM
- IC50 (KRas WT): 11 nM
- IC50 [1]: 171 nM
- IC50 [2]: 669 nM
- IC50 [3]: 114 nM

SMILES: COCC(C)OC(=O)C1CCN(c2nc(OC[C@@]34CCCN3C[C@H](F)C4)nc3c(F)c(-c4ccc(F)c5sc(N)c(C#N)c45)c(Cl)cc23)CC1 (stereo partly drawn) [Example 240, 1-methoxypropan-2-yl 1-(7-(2-amino-3-cyano-7-fluorobenzo[b]thiophen-4-yl)-6-chloro-8-fluoro-2-(((2R,7aS)-2-fluorotetrahydro-1H-pyrrolizin-7a(5H)-yl)methoxy)quinazolin-4-yl)piperidine-4-carboxylate]
- IC50 (KRas G12C): 66 nM
- IC50 (KRas G12S): 62 nM
- IC50 (KRas WT): 16 nM
- IC50 [1]: 44 nM
- IC50 [2]: 775 nM
- IC50 [3]: 658 nM
